Assay results as given in the supplement of paper PMC10307832.

Columns and labels:
Experiment in all cases: relative viability (nuclei count vs DMSO), 5 days (fraction); higher = more cells survive
[1] = compound: CC1=C(N=C(N=C1N)[C@H](CC(=O)N)NC[C@@H](C(=O)N)N)C(=O)N[C@@H]([C@H](C2=CN=CN2)OC3C(C(C(C(O3)CO)O)O)OC4C(C(C(C(O4)CO)O)OC(=O)N)O)C(=O)N[C@H](C)[C@H]([C@H](C)C(=O)N[C@@H]([C@@H](C)O)C(=O)NCCC5=NC(=CS5)C6=NC(=CS6)C(=O)NCCC[S+](C)C)O [Bleomycin] + CC(=O)c1c(C)c2cnc(Nc3ccc(N4CCNCC4)cn3)nc2n(C2CCCC2)c1=O [Palbociclib] (partner 0.5 µM); details: main component drawn
Summary of the method: (§1)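 Relative viability equals treated-well nuclei counts divided by vehicle-well nuclei counts. Counts came from 4× images of lung cancer cell lines grown in 1536-well plates for 5 days after pin-tool dosing on the day after seeding. Dosing used one drug alone or a fixed anchor-drug dose plus five library-drug doses (not always all listed) in √10 steps, and values are medians of duplicate plates.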

[2] = compound: CC1=C(N=C(N=C1N)[C@H](CC(=O)N)NC[C@@H](C(=O)N)N)C(=O)N[C@@H]([C@H](C2=CN=CN2)OC3C(C(C(C(O3)CO)O)O)OC4C(C(C(C(O4)CO)O)OC(=O)N)O)C(=O)N[C@H](C)[C@H]([C@H](C)C(=O)N[C@@H]([C@@H](C)O)C(=O)NCCC5=NC(=CS5)C6=NC(=CS6)C(=O)NCCC[S+](C)C)O [Bleomycin] + Nc1nc2[nH]cc(CCc3ccc(C(=O)N[C@@H](CCC(=O)O)C(=O)O)cc3)c2c(=O)[nH]1 [Pemetrexed] (partner 0.2 µM); details: main component drawn
Summary of the method: as §1

[3] = compound: COc1cc([C@@H]2c3cc4c(cc3[C@@H](O[C@@H]3O[C@@H]5CO[C@@H](C)O[C@H]5[C@H](O)[C@H]3O)[C@H]3COC(=O)[C@H]23)OCO4)cc(OC)c1O [Etoposide] + Cc1nc(NC(=O)N2CCC[C@H]2C(N)=O)sc1-c1ccnc(C(C)(C)C(F)(F)F)c1 [Alpelisib] (partner 2 µM)
Summary of the method: as §1

[4] = compound: COc1cc([C@@H]2c3cc4c(cc3[C@@H](O[C@@H]3O[C@@H]5CO[C@@H](C)O[C@H]5[C@H](O)[C@H]3O)[C@H]3COC(=O)[C@H]23)OCO4)cc(OC)c1O [Etoposide] + Nc1ncn([C@H]2C[C@H](O)[C@@H](CO)O2)c(=O)n1 [Decitabine] (partner 2 µM)
Summary of the method: as §1

| Cell Line | relative viability ([1]; first compound 0.01 µM) | relative viability ([1]; first compound 0.03162 µM) | relative viability ([1]; first compound 0.1 µM) | relative viability ([1]; first compound 0.3162 µM) | relative viability ([1]; first compound 1 µM) | relative viability ([2]; first compound 0.01 µM) | relative viability ([2]; first compound 0.03162 µM) | relative viability ([2]; first compound 0.1 µM) | relative viability ([2]; first compound 0.3162 µM) | relative viability ([2]; first compound 1 µM) | relative viability ([3]; first compound 0.01 µM) | relative viability ([3]; first compound 0.03162 µM) | relative viability ([3]; first compound 0.1 µM) | relative viability ([3]; first compound 0.3162 µM) | relative viability ([3]; first compound 1 µM) | relative viability ([4]; first compound 0.01 µM) | relative viability ([4]; first compound 0.03162 µM) | relative viability ([4]; first compound 0.1 µM) | relative viability ([4]; first compound 0.3162 µM) | relative viability ([4]; first compound 1 µM) |
| --- | --- | --- | --- | --- | --- | --- | --- | --- | --- | --- | --- | --- | --- | --- | --- | --- | --- | --- | --- | --- |
| NCI-H1975 | 0.377 | 0.398 | 0.397 | 0.226 | 0.178 | 0.267 | 0.252 | 0.219 | 0.175 | 0.166 | 0.621 | 0.822 | 0.693 | 0.56 | 0.273 | 0.371 | 0.757 | 0.4 | 0.249 | 0.212 |
| CAL-12T | 0.309 | 0.365 | 0.232 | 0.116 | 0.192 | 0.729 | 0.482 | 0.31 | 0.186 | 0.156 | 1.15 | 1.2 | 1.32 | 0.799 | 0.306 |  |  |  |  |  |
| HCC-44 | 0.861 | 0.821 | 0.64 | 0.455 | 0.382 | 0.625 | 0.666 | 0.586 | 0.526 | 0.401 | 0.635 | 0.89 | 0.857 | 0.569 | 0.323 | 1 | 1.06 | 0.984 | 0.905 | 0.55 |
| EKVX | 0.366 | 0.366 | 0.299 | 0.209 | 0.189 | 0.36 | 0.317 | 0.315 | 0.285 | 0.2 | 0.693 | 0.974 | 0.584 | 0.693 | 0.343 | 0.281 | 0.351 | 0.282 | 0.31 | 0.229 |
| NCI-H1651 | 0.488 | 0.454 | 0.464 | 0.288 | 0.252 | 0.629 | 0.501 | 0.433 | 0.366 | 0.285 | 0.844 | 0.833 | 0.984 | 0.511 | 0.24 | 0.612 | 0.688 | 0.442 | 0.241 | 0.128 |
| NCI-H1944 | 0.228 | 0.188 | 0.218 | 0.156 | 0.13 | 0.36 | 0.398 | 0.313 | 0.216 | 0.157 | 0.742 | 0.969 | 0.645 | 0.564 | 0.249 | 0.396 | 0.459 | 0.384 | 0.36 | 0.296 |
| NCI-H1703 |  |  |  |  |  |  |  |  |  |  | 0.406 | 0.367 | 0.31 | 0.287 | 0.255 |  |  |  |  |  |
| Calu-6 |  |  |  |  |  |  |  |  |  |  | 0.837 | 1.08 | 0.798 | 0.709 | 0.338 |  |  |  |  |  |
| EBC-1 |  |  |  |  |  |  |  |  |  |  | 0.841 | 0.909 | 0.452 | 0.75 | 0.38 |  |  |  |  |  |
| A-427 | 0.458 | 0.453 | 0.447 | 0.276 | 0.256 | 0.875 | 0.917 | 0.868 | 0.432 | 0.288 | 1.07 | 1.14 | 0.713 | 0.755 | 0.229 | 0.54 | 0.549 | 0.477 | 0.354 | 0.275 |
